From patent publication US9533985B2, “Sulfonamide derivative and medicinal use thereof” (EA Pharma Co., Ltd., priority 2012, dated 2017)

How the values were obtained:
Type in all cases: cell-based
[1] = biological target: T1, α4β7 integrin (Homo sapiens (Human), UniProt P13612+P26010); experiment: MAdCAM-1/α4β7 integrin binding inhibitory activity evaluation test in the presence of serum (1); settings: RPMI-8866 cells binding to mouse MAdCAM-1/Fc, human serum at final concentration of 50%; read-out: α4β7 with serum added, IC50
Description: (§1) The ability of test substances to inhibit the binding of a human B cell line, RPMI-8866, which is known to express α4β7 integrin, to MAdCAM-1 was measured. To 96-well microtiter plates, recombinant mouse MAdCAM-1/Fc (R&D systems) solution (1 μg/mL) diluted with buffer A (carbonate buffer, pH 9.6) was added at 50 μL/well, followed by incubation at 4° C. overnight. After washing once with PBS, Block Ace (Snow Brand Milk Products Company, Limited) was added at 150 μL/well, followed by incubation at room temperature for 2 hours. After removal, washing was conducted once with PBS. 100 μL of each test substance diluted with a binding buffer (DMEM containing 40 mM HEPES, 0.2% BSA, and 4 mM MnCl2) to various concentrations and 100 μL of RPMI-8866 cells (2×10^6 cell/mL) were added to plates coated with MAdCAM-1/Fc (5×10^5 cells/well) with human serum being contained at a final concentration of 50%, followed by incubation at 30° C. for 15 minutes to 60 minutes. After the cells were bound to each well, unbound cells were removed by washing with PBS. To the plates, buffer C (PBS containing 1.5% Triton X-100) was added at 50 μL/well to lyse the bound RPMI-8866 cells. To 30 μL of the cell lysate, 30 μL of Substrate Buffer (Promega, CytoTox 96 Non-Radioactive Cytotoxicity Assay) was added, and the reaction was allowed to proceed at room temperature in a dark place for 30 minutes. To each well, 30 μL of Stop Solution (Promega, CytoTox 96 Non-Radioactive Cytotoxicity Assay) was added, and the absorbance at 490 nm was measured by using a plate reader. Here, by the obtained absorbance, the activity of the lactate dehydrogenase (LDH) dissolved into the supernatant of each well was detected. In other words, the absorbance was proportional to the number of the RPMI-8866 cells bound to MAdCAM-1 and remaining on the plate. The test was duplicated. The binding ratios of the cells at various concentrations were determined, with the absorbance of a well containing no test substance taken as 100%. Then, the concentration IC50, at which 50% binding inhibition was achieved, was calculated.

[2] = biological target: α4β1 integrin (Homo sapiens (Human), UniProt P05556+P13612); experiment: VCAM-1/α4β1 integrin binding inhibitory activity evaluation test (Jurkat cell adhesion to VCAM-1/Fc); settings: Jurkat cells binding to recombinant human VCAM-1/Fc
Description: The ability of test substances to inhibit the binding of a human T-cell line, Jurkat, which is known to express α4β1 integrin, to VCAM-1 was measured. To 96-well microtiter plates, recombinant human VCAM-1/Fc (R&D systems) solution (1 μg/mL) diluted with buffer A (carbonate buffer, pH 9.6) was added at 50 μL/well, followed by incubation at 4° C. overnight. After washing once with PBS, Block Ace (Snow Brand Milk Products Company, Limited) was added at 150 μL/well, followed by incubation at room temperature for 2 hours. After removal, washing was conducted once with PBS. 100 μL of each test substance diluted with a binding buffer (DMEM containing 40 mM HEPES, 0.2% BSA, and 4 mM MnCl2) to various concentrations and 100 μL of the Jurkat cells (2×10^6 cell/mL) were added to the plates coated with VCAM-1/Fc (5×10^5 cells/well), followed by incubation at 30° C. for 15 minutes to 60 minutes. After the cells were bound to each well, unbound cells were removed by washing with PBS. To the plates, buffer C (PBS containing 1.5% Triton X-100) was added at 50 μL/well to lyse the bound Jurkat cells. To 30 μL of the cell lysate, 30 μL of Substrate Buffer (Promega, CytoTox 96 Non-Radioactive Cytotoxicity Assay) was added, and the reaction was allowed to proceed at room temperature in a dark place for 30 minutes. To each well, 30 μL of Stop Solution (Promega, CytoTox 96 Non-Radioactive Cytotoxicity Assay) was added, and the absorbance at 490 nm was measured by using a plate reader. Here, by the obtained absorbance, the activity of the lactate dehydrogenase (LDH) dissolved into the supernatant of each well was detected. In other words, the absorbance was proportional to the number of the Jurkat cells bound to VCAM-1 and remaining on the plate. The test was duplicated. The binding ratios of the cells at various concentrations were determined, with the absorbance of a well containing no test substances taken as 100%. Then, the concentration IC50, at which 50% binding inhibition was achieved, was calculated. […] Note that, among the compounds synthesized in the corresponding Examples, the compounds in the free form (Compounds A-1 to A-39) were used as the test compounds. Hereinafter, the same shall apply.

[3] = biological target: T1, α4β7 integrin; experiment: MAdCAM-1/α4β7 integrin binding inhibitory activity evaluation test (RPMI-8866 cell adhesion to MAdCAM-1/Fc); settings: for Selectivity: IC50 in VCAM-1/α4β1 test divided by IC50 in MAdCAM-1/α4β7 test; for IC50: RPMI-8866 cells binding to recombinant mouse MAdCAM-1/Fc, no serum
Description: as §1, with “systems) solution (0.75 μg/mL) diluted” for “systems) solution (1 μg/mL) diluted”, “A (carbonate buffer solution, pH 9.6)” for “A (carbonate buffer, pH 9.6)”, “diluted with binding buffer” for “diluted with a binding buffer”, “added to the plates coated” for “added to plates coated”, “MAdCAM-1/Fc (5×10^5 cells/well), followed by” for “MAdCAM-1/Fc (5×10^5 cells/well) with human serum being contained at a final concentration of 50%, followed by”, “was calculated. […] Note that the selectivity in the table was determined by dividing the IC50 value in VCAM-1/α4β1 Integrin Binding Inhibitory Activity Evaluation Test by the IC50 value in the MAdCAM-1/α4β7 integrin binding inhibitory activity evaluation test.” for “was calculated.”

Sequence of α4β1 integrin (P13612 34-1032): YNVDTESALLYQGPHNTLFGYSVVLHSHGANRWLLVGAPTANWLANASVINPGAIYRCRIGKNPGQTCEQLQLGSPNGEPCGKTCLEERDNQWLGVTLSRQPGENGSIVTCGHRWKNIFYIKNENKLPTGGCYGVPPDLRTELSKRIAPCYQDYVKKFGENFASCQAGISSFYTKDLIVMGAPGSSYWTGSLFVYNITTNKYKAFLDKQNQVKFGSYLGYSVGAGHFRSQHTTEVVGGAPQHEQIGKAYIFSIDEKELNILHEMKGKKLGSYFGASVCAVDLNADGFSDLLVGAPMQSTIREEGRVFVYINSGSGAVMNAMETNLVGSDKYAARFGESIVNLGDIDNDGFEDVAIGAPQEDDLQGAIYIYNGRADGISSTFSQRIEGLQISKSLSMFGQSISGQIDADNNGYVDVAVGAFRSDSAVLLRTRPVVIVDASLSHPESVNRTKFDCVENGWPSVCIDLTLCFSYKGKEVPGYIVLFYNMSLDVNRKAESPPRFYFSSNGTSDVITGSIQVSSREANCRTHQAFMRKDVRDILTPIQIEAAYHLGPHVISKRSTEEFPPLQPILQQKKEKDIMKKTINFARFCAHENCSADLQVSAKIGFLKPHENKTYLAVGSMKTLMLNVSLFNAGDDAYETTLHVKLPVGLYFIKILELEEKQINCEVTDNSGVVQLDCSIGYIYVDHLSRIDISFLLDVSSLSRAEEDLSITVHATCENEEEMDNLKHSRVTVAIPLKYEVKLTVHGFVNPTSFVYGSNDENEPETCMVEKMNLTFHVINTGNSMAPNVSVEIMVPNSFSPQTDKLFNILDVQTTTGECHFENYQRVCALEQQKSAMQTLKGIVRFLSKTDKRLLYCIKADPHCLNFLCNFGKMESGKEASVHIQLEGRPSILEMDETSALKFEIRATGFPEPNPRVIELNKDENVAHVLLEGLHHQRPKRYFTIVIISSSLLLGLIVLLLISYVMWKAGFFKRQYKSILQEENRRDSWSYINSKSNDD
Sequence of α4β1 integrin (P05556 21-798): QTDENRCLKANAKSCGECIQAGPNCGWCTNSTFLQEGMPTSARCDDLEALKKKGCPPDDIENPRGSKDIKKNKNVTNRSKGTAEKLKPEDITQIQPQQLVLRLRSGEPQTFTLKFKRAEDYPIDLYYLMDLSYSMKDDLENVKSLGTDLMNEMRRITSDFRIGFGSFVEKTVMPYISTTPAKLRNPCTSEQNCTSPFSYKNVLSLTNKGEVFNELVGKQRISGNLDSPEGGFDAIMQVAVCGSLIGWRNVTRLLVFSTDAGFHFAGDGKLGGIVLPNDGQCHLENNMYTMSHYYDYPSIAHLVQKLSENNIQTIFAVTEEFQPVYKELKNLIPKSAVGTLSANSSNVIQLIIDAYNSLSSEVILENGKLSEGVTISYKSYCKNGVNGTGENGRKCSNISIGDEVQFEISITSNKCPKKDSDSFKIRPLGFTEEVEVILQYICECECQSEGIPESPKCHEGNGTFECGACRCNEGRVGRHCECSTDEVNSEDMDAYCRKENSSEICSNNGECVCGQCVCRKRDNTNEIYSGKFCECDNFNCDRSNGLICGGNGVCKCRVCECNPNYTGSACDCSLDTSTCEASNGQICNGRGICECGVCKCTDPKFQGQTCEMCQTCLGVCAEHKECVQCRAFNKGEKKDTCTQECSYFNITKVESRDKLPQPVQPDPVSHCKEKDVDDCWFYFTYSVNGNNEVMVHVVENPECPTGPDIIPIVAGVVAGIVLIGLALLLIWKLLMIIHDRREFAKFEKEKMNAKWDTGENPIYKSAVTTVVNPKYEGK
T1 sequence (P13612 34-1032): as the sequence (P13612 34-1032) above
T1 sequence (P26010 20-798): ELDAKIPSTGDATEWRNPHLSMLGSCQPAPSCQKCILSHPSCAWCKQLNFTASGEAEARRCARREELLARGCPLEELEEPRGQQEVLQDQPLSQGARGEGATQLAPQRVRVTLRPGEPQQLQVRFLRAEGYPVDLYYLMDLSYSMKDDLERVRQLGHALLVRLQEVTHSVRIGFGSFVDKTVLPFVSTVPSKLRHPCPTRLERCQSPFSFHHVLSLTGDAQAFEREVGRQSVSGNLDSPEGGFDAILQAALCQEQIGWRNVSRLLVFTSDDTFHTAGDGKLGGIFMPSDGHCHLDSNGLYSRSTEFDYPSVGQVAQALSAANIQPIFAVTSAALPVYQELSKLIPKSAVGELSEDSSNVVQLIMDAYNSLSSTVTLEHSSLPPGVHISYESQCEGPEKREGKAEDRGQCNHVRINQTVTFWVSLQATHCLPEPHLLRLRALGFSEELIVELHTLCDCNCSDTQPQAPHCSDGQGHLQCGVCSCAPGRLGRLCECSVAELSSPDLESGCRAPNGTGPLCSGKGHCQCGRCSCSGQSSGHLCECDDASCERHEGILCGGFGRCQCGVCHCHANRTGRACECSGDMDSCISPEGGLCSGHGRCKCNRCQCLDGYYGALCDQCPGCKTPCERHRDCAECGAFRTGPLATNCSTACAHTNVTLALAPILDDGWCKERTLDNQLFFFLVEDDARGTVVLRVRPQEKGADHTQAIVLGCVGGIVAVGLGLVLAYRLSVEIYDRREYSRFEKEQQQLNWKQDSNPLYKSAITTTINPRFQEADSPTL

Structure (SMILES): Cn1c(=O)n(-c2ccc(C[C@H](NC(=O)c3ccc(NS(=O)(=O)c4ccncc4)cc3F)C(=O)O)cc2)c(=O)c2ccncc21 [Example 39, N-{2-Fluoro-4-[(pyridin-4-yl-sulfonyl)amino]benzoyl}-4-(1-methyl-2,4-dioxo-1,4-dihydropyrido[3,4-d]pyrimidin-3(2H)-yl)-L-phenylalanine]
- IC50 [1]: 27 nM
- IC50 [2]: 140 nM
- Selectivity [3]: 170
- IC50 [3]: 0.83 nM

Structure (SMILES): Cn1ccc(=O)n(-c2ccc(C[C@H](NC(=O)c3c(F)cc(NS(=O)(=O)c4ccc(-c5ncccn5)cn4)cc3F)C(=O)O)cc2)c1=O [Example 40, N-(2,6-Difluoro-4-{[(5-pyrimidin-2-yl-pyridin-2-yl)sulfonyl]amino}benzoyl)-4-(3-methyl-2,6-dioxo-3,6-dihydropyrimidin-1(2H)-yl)-L-phenylalanine]
- IC50 [1]: 8.7 nM
- IC50 [2]: 210 nM
- Selectivity [3]: 290
- IC50 [3]: 0.73 nM

Structure (SMILES): Cn1c(=O)n(-c2ccc(C[C@H](NC(=O)c3c(F)cc(NS(=O)(=O)c4ccc(-c5ncccn5)cc4)cc3F)C(=O)O)cc2)c(=O)c2ccncc21 [Example 41, N-(2,6-Difluoro-4-{[(4-pyrimidin-2-yl-phenyl)sulfonyl]amino}benzoyl)-4-(1-methyl-2,4-dioxo-1,4-dihydropyrido[3,4-d]pyrimidin-3(2H)-yl)-L-phenylalanine]
- IC50 [1]: 6.4 nM
- IC50 [2]: 130 nM
- Selectivity [3]: 500
- IC50 [3]: 0.26 nM

Structure (SMILES): Cn1c(=O)n(-c2ccc(C[C@H](NC(=O)c3c(F)cc(NS(=O)(=O)c4ccc(-c5ccncc5)nc4)cc3F)C(=O)O)cc2)c(=O)c2ccncc21 [Example 42, N-{4-[(2,4′-Bipyridin-5-yl-sulfonyl)amino]-2,6-difluorobenzoyl}-4-(1-methyl-2,4-dioxo-1,4-dihydropyrido[3,4-d]pyrimidin-3(2H)-yl)-L-phenylalanine]
- IC50 [1]: 8.8 nM
- IC50 [2]: 52 nM
- Selectivity [3]: 190
- IC50 [3]: 0.27 nM

Structure (SMILES): Cn1c(=O)n(-c2ccc(C[C@H](NC(=O)c3c(F)cc(NS(=O)(=O)c4ccc(-n5cccc5)cc4)cc3F)C(=O)O)cc2)c(=O)c2ccncc21 [Example 43, N-[2,6-Difluoro-4-({[4-(1H-pyrrol-1-yl)phenyl]sulfonyl}amino)benzoyl]-4-(1-methyl-2,4-dioxo-1,4-dihydropyrido[3,4-d]pyrimidin-3(2H)-yl)-L-phenylalanine]
- IC50 [1]: 12 nM
- IC50 [2]: 220 nM
- Selectivity [3]: 240
- IC50 [3]: 0.9 nM

Structure (SMILES): CCNC(=O)c1ccc(S(=O)(=O)Nc2cc(F)c(C(=O)N[C@@H](Cc3ccc(-n4c(=O)ccn(C)c4=O)cc3)C(=O)O)c(F)c2)cc1 [Example 44, N-{4-[({4-[(Ethylamino)carbonyl]phenyl}sulfonyl)amino]-2,6-difluorobenzoyl}-4-(3-methyl-2,6-dioxo-3,6-dihydropyrimidin-1(2H)-yl)-L-phenylalanine]
- IC50 [1]: 16 nM
- IC50 [2]: 160 nM
- Selectivity [3]: 260
- IC50 [3]: 0.62 nM

Structure (SMILES): Cn1ccc(=O)n(-c2ccc(C[C@H](NC(=O)c3c(F)cc(NS(=O)(=O)c4ccc(C(=O)NC5CC5)cc4)cc3F)C(=O)O)cc2)c1=O [Example 45, N-{4-[({4-[(Cyclopropylamino)carbonyl]phenyl}sulfonyl)amino]-2,6-difluorobenzoyl}-4-(3-methyl-2,6-dioxo-3,6-dihydropyrimidin-1(2H)-yl)-L-phenylalanine]
- IC50 [1]: 21 nM
- IC50 [2]: 500 nM
- Selectivity [3]: 520
- IC50 [3]: 0.97 nM

Structure (SMILES): COc1cc2c(=O)n(-c3ccc(C[C@H](NC(=O)c4c(F)cc(NS(=O)(=O)c5ccc(-c6ncccn6)cc5)cc4F)C(=O)O)cc3)c(=O)n(C)c2cn1 [Example 46, N-(2,6-Difluoro-4-{[(4-pyrimidin-2-yl-phenyl)sulfonyl]amino}benzoyl)-4-(6-methoxy-1-methyl-2,4-dioxo-1,4-dihydropyrido[3,4-d]pyrimidin-3(2H)-yl)-L-phenylalanine]
- IC50 [1]: 15 nM
- IC50 [2]: 200 nM
- Selectivity [3]: 180
- IC50 [3]: 1.1 nM

Structure (SMILES): CN(C)c1ccc2c(c1)c(=O)n(-c1ccc(C[C@H](NC(=O)c3c(F)cc(NS(=O)(=O)c4ccc(-n5cncn5)cc4)cc3F)C(=O)O)cc1)c(=O)n2C [Example 47, N-[2,6-Difluoro-4-({[4-(1H-1,2,4-triazol-1-yl)phenyl]sulfonyl}amino)benzoyl]-4-[6-(dimethylamino)-1-methyl-2,4-dioxo-1,4-dihydroquinazolin-3(2H)-yl]-L-phenylalanine]
- IC50 [1]: 20 nM
- IC50 [2]: 340 nM
- Selectivity [3]: 1100
- IC50 [3]: 0.32 nM

Structure (SMILES): Cn1c(=O)n(-c2ccc(C[C@H](NC(=O)c3c(F)cc(NS(=O)(=O)c4ccc(-c5ncc[nH]5)cc4)cc3F)C(=O)O)cc2)c(=O)c2ccncc21 [Example 48, N-[2,6-Difluoro-4-({[4-(1H-imidazol-2-yl)phenyl]sulfonyl}amino)benzoyl]-4-(1-methyl-2,4-dioxo-1,4-dihydropyrido[3,4-d]pyrimidin-3(2H)-yl)-L-phenylalanine]
- IC50 [1]: 14 nM
- IC50 [2]: 54 nM
- Selectivity [3]: 230
- IC50 [3]: 0.24 nM
